Measurements taken from patent US10947542B2, “Nucleic acid simultaneously inhibiting expression of AR gene and mTOR gene” (CURIGIN CO., LTD., priority 2017, dated 2021).

Tests used:
DU145 cell line = experiment: Cancer cell death by double target siRNA and anticancer agent, MTT cell viability; format: cell-based
Method: (§1) After incubating the DU145 cell line and the H460 cell line in 6-well plates respectively, we transfected the double target siRNA set 1 (si-AT1) according to the present disclosure thereto. Then, as 48 hours lapsed, the cells were treated with cisplatin 50 uM, etoposide 20 uM or Taxol 1 uM and were incubated for 16 hours. Thereafter, the cells were treated with 5 mg/mL MTT (Promega, Ltd.) and incubated for 4 hours, and then the medium was removed. The cells were treated with 150 μl of solubilization solution and stop solution and then were incubated at 37° C. for 4 hours. Absorbance of the reaction solution was measured at 570 nm and cell viability was calculated using the following equation. Cell viability=(Absorbance of experiment group at 570 nm/Absorbance of control at […])×100(%) [Equation 1]

AR gene = AR gene expression inhibition by siRNA transfection, RT-PCR/qPCR of mRNA (PC3 and h460 cell lines); format: cell-based, human; conditions: 80 pmole siRNA per well, 48 hours after transfection, normalized to GAPDH
Method: (§2) We dispensed PC3 and h460 cell lines into 12-well plates, and incubated the same at 37° C. and 5% CO2 condition in RPMI medium (Hyclone company) with 10% FBS (Hyclone company) until a cell confluent reaches 50%. Thereafter, 3 μl of lipofectamine 3000 (Invitrogen, Carlsbad, Calif., USA) was used to transfect the double target siRNA set 1 prepared in the Example 1 (si-AT 1) to the wells in which the cells were cultured at 80 pmole per well. Thus, AR and mTOR were knocked down simultaneously. In addition, siRNA to AR and siRNA to mTOR were transfected respectively, as listed in the following table 3, as a positive control. At 48 hours after the transfection, cells were crushed, and total RNA was extracted using GeneJET RNA Purification Kit (Invitrogen). While using the extracted total RNA as a template, the same was subjected to reverse transcription into cDNA via RT-PCR reaction. Then, mRNA expression levels of AR and mTOR by each siRNA and by the double target siRNA set 1 (si-AT1) according to the present disclosure was identified via q-PCR reaction. To identify the mRNA expression levels, the mRNA of AR and mTOR in the cell lysates knocked down by PCR conditions of Table 6 was converted to cDNA using the primer set from Table 4 and the reaction mixture from Table 5. […]

H460 cell line = experiment: Cancer cell death by double target siRNA and anticancer agent, MTT cell viability; format: cell-based
Method: as §1

mTOR gene = mTOR gene expression inhibition by siRNA transfection, RT-PCR/qPCR of mRNA (PC3 and h460 cell lines); format: cell-based, human; conditions: 80 pmole siRNA per well, 48 hours after transfection, normalized to GAPDH
Method: as §2

[1] = anticancer agent without double target siRNA, cisplatin 50 uM, etoposide 20 uM or Taxol 1 uM, 16 hours
[2] = siRNA transfected, after 48 hours Taxol 1 uM for 16 hours
[3] = siRNA transfected, after 48 hours etoposide 20 uM for 16 hours

Molecule: CC(=O)O[C@H]1C(=O)[C@@]2(C)[C@H]([C@H](OC(=O)c3ccccc3)[C@]3(O)C[C@H](OC(=O)[C@H](O)[C@@H](NC(=O)c4ccccc4)c4ccccc4)C(C)=C1C3(C)C)[C@]1(OC(C)=O)CO[C@@H]1C[C@@H]2O [taxol, reference compound]
- cancer cell death (cell viability, MTT) (DU145 cell line; [1]): a little anticancer activity

Molecule: si-AT1: AR and mTOR double target double strand siRNA, 20mer, SEQ ID NOs: 1 and 2 (chain 1 GCUGCUGCUGCUGCCUGGGG; chain 2 CCCCAUGCAGCUGCAGCAGC; listed as RNA, chemistry not given here)
- mRNA expression level of AR (AR gene; PC3 cells): reduced
- mRNA expression level of AR (AR gene; h460 cell line): reduced
- cancer cell death (cell viability, MTT) (DU145 cell line; siRNA alone ("no treat", no anticancer agent)): caused apoptosis
- cancer cell death (cell viability, MTT) (DU145 cell line; [2]): significant improvement in the DU145 cell death
- cancer cell death (cell viability, MTT) (DU145 cell line; siRNA transfected, after 48 hours cisplatin 50 uM for 16 hours): induced the apoptosis
- cancer cell death (cell viability, MTT) (DU145 cell line; [3]): significant improvement in the DU145 cell death
- cancer cell death (cell viability, MTT) (H460 cell line; siRNA alone): showed apoptosis effect
- cancer cell death (cell viability, MTT) (H460 cell line; [2]): significant anticancer activity
- cancer cell death (cell viability, MTT) (H460 cell line; [3]): significant anticancer activity
- mRNA expression level of mTOR (mTOR gene; PC3 cells): reduced
- mRNA expression level of mTOR (mTOR gene; h460 cell line): reduced

Molecule: N.N.[Cl][Pt][Cl] [cisplatin, reference compound]
- cancer cell death (cell viability, MTT) (DU145 cell line; [1]): apoptosis effect was not achieved

Molecule: COc1cc([C@@H]2c3cc4c(cc3[C@@H](O[C@@H]3O[C@@H]5CO[C@@H](C)O[C@H]5[C@H](O)[C@H]3O)[C@H]3COC(=O)[C@H]23)OCO4)cc(OC)c1O [etoposide, reference compound]
- cancer cell death (cell viability, MTT) (DU145 cell line; [1]): a little anticancer activity
